Experimental findings from article PMC3726784, “Synthesis, Structure and Antibacterial Activity of Potent DNA Gyrase Inhibitors: N′-Benzoyl-3-(4-Bromophenyl)-1H-Pyrazole-5-Carbohydrazide Derivatives” (PLoS ONE, 2013) are described below.

pIC50: −log10 of the molar value. In brackets after ≈: the same amount, converted by molar mass.

One data set addresses T1, S. aureus DNA gyrase (Staphylococcus aureus, UniProt P0A0K8).
T1 construct: purified by the F. Blanche [25] from a crude extract of S. aureus; endogenous in cells
Nature of the data set: biochemical. Particulars: enzyme purified from S. aureus, supercoiling. An excerpt:
(§1) To elucidate the mechanism by which the pyrazole derivatives induce antibacterial activity, the inhibitory activities of selected compounds were examined against DNA gyrase isolated from B. subtilis and S. aureus.
The S. aureus DNA gyrase were purified by the F. Blanche from a crude extract of S. aureus and cultivated with medium B, which was composed of 10 g of polypeptone, 2 g of yeast extract, 8 g of Na2HPO4, 2 g of KH2PO4, 1.2 g of (NH4)2SO4, 0.2 g of MgSO4, 4 g of glucose perliter of distilled water. Supercoiling and decatenation were performed according to F. B lanche.

In the next data set the target is B. subtilis DNA gyrase (Bacillus subtilis, UniProt P05652). Nature of the data set: biochemical. The protocol:
as §1
The B. subtilis DNA gyrase were purified by the methods of E. Orr.: Cells were suspended in an equal volume of 25 mM HEPES-KOH (pH 8.0)-100 mM KCl and stored frozen at −70°C. The frozen cell suspension was thawed and diluted with an equal volume of 25 mM HEPES-KOH (pH 8.0)-0.4 M sucrose-20 mM magnesium acetate-1 mM dithiothreitol-5 mM PMSF. All operations were performed at 0–4°C. Lysozyme was added to a final concentration, and the mixture was incubated for 2.5 h. One-third volume of 2 M KCl-1.5% Brij was added, and the incubation was continued for 15 min. The lysate was then centrifuged for 90 min intirotor. The supernatant was adjusted to a KCl concentration of 0.2 M by dilution with 25 mM HEPES-KOH (pH 8.0)-1 mM dithiothreitol-1mMEDTA-0.5 mM pmsf-10% ethylene glycol and applied to a column. The column was washed with starting buffer and eluted successively with buffer containing 20 mM ATP-25 mM magnesium acetate-0.2 M KCI, buffer (2 M KCI), and 5 M urea in buffer (0.2 M KCl).Protein-containing fractions were dialyzed against buffer (0.05 MKCI). Supercoiling and decatenation were carried out by the F. Blanche method.

The test system of data set [1] is Bacillus subtilis ATCC 6633. As to the kind of experiment: In vitro antibacterial assay (MIC, MTT colorimetric method). Type of data set: cell-based. The note with it: Bacillus subtilis, ATCC6633, 24 h, B. subtilis ATCC 6633, MH medium, 37°C, read-out: Minimum inhibitory concentrations, B. subtilis. The protocol: (§2) The activities of synthesized compounds were tested against Bacillus subtilis ATCC 6633, Escherichia coli ATCC 35218, Pseudomonas aeruginosa ATCC 27853 and Staphylococcus aureus ATCC 6538 which may be causal agents of some serious infections in humans using MH medium (Mueller-Hinton medium: casein hydrolysate 17.5 g, soluble starch 1.5 g, beef extract 1000 mL). Also included are the activities of reference compounds kanamycin.
(§3) The antibacterial activity of the synthesized compounds was tested against B. subtilis, E. coli, P. aeruginosa and S. aureus using MH medium (Mueller-Hinton medium: casein hydrolysate 17.5 g, soluble starch 1.5 g, beef extract 1000 mL). The MICs (minimum inhibitory concentrations) of the test compounds were determined by a colorimetric method using the dye MTT (3-(4,5-dimethylth-iazol-2-yl)-2,5-diphenyl tetrazoliumbromide). A stock solution of the synthesized compound (100 µg/mL) in DMSO was prepared and graded quantities of the test compounds were incorporated in specified quantity of sterilized liquid MH medium. A specified quantity of the medium containing the compound was poured into microtitration plates. Suspension of the microorganism was prepared to contain approximately 10^5 cfu/mL and applied to microtitration plates with serially diluted compounds in DMSO to be tested and incubated at 37°C for 24 h. After the MICs were visually determined on each of the microtitration plates, 50 µL of PBS (phosphate buffered saline 0.01 mol/L, pH 7.4, Na2HPO4·12H2O 2.9 g, KH2PO4 0.2 g, NaCl 8.0 g, KCl 0.2 g, distilled water 1000 mL) containing 2 mg of MTT/mL was added to each well. Incubation was continued at room temperature for 4–5 h. The content of each well was removed, and 100 µL of isopropanol containing 5% 1 mol/L HCl was added to extract the dye. After 12 h of incubation at room temperature, the optical density (OD) was measured with a microplate reader at 550 nm.
For orientation: Tetrazolium assays rely on reduction of a dye to a coloured formazan, in cell work by metabolically active cells.

In data set [2] the test system is Staphylococcus aureus ATCC 6538. Described as above. Particulars: Staphylococcus aureus, ATCC6538; S. aureus ATCC 6538, MH medium, 37°C, 24 h; read-out: Minimum inhibitory concentrations, S. aureus. In kind it is cell-based. The protocol:
as §2, §3

The subject of data set [3] is Escherichia coli ATCC 35218. The data set is described as above. Type of data set: cell-based. Particulars: Escherichia coli, ATCC35218; E. coli ATCC 35218, MH medium, 37°C, 24 h; read-out: Minimum inhibitory concentrations, E. coli. The protocol:
as §2, §3

The test system of data set [4] is Pseudomonas aeruginosa ATCC 27853. The data set is described as above. Particulars: Pseudomonas aeruginosa, ATCC27853; P. aeruginosa ATCC 27853, MH medium, 37°C, 24 h; read-out: Minimum inhibitory concentrations, P.aeruginosa. Type of data set: cell-based. The protocol: as §2, §3

Chain of B. subtilis DNA gyrase (P05652 whole entry): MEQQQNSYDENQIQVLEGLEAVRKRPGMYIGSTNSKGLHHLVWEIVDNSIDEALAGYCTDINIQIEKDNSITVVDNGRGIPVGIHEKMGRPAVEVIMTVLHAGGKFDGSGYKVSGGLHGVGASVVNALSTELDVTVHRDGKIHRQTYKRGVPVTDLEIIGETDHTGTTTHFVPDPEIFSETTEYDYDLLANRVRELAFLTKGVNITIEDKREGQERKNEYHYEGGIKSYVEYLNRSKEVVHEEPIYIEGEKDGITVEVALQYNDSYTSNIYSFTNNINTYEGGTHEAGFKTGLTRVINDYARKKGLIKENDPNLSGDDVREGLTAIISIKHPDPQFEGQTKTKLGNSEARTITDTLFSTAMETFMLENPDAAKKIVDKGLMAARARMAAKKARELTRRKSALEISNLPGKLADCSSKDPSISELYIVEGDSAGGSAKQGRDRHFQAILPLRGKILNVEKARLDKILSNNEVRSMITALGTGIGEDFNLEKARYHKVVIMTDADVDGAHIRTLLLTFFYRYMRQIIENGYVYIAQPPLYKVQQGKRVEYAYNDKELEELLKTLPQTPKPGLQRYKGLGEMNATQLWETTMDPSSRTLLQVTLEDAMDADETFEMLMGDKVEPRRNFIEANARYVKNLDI
Chain of B. subtilis DNA gyrase (P05653 whole entry, further chain): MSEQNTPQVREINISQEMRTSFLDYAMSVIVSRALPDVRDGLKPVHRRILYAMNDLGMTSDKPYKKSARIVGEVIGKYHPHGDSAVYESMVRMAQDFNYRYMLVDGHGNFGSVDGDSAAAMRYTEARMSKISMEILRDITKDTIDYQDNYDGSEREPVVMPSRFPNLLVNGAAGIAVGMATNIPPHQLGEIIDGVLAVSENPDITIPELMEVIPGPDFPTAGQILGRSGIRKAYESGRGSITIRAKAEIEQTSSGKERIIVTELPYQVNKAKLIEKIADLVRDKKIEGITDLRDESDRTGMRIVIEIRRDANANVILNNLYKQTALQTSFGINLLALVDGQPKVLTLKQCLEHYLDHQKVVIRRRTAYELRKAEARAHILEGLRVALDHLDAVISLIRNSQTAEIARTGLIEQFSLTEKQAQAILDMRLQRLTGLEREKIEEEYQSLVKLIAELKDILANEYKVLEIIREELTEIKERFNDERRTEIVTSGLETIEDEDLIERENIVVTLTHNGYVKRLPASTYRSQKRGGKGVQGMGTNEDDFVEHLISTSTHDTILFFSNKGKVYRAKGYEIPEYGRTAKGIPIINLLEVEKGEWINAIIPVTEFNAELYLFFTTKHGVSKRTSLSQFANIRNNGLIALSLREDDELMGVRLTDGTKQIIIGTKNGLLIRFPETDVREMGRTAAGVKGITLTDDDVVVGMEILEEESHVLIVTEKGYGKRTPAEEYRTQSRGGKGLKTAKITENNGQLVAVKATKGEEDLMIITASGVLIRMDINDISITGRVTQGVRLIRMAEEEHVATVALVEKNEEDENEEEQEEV
T1 sequence (P0A0K8 whole entry): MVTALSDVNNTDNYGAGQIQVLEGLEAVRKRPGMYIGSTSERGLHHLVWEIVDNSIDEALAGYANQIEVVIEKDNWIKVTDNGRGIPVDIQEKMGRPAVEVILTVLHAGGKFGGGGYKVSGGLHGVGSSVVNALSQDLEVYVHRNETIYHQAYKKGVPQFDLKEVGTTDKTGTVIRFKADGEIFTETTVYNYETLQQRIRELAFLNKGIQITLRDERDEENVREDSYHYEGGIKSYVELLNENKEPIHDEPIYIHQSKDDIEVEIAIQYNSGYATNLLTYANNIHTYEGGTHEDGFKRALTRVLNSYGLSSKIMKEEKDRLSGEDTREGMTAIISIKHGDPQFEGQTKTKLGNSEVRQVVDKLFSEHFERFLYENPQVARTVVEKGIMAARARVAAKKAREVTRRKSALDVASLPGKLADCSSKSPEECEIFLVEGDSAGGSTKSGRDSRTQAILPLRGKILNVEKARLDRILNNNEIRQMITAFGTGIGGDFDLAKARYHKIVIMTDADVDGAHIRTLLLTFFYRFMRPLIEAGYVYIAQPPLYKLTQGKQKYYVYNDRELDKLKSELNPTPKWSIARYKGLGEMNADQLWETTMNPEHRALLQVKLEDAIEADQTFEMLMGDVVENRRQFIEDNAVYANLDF
T1 sequence (P20831 whole entry partner): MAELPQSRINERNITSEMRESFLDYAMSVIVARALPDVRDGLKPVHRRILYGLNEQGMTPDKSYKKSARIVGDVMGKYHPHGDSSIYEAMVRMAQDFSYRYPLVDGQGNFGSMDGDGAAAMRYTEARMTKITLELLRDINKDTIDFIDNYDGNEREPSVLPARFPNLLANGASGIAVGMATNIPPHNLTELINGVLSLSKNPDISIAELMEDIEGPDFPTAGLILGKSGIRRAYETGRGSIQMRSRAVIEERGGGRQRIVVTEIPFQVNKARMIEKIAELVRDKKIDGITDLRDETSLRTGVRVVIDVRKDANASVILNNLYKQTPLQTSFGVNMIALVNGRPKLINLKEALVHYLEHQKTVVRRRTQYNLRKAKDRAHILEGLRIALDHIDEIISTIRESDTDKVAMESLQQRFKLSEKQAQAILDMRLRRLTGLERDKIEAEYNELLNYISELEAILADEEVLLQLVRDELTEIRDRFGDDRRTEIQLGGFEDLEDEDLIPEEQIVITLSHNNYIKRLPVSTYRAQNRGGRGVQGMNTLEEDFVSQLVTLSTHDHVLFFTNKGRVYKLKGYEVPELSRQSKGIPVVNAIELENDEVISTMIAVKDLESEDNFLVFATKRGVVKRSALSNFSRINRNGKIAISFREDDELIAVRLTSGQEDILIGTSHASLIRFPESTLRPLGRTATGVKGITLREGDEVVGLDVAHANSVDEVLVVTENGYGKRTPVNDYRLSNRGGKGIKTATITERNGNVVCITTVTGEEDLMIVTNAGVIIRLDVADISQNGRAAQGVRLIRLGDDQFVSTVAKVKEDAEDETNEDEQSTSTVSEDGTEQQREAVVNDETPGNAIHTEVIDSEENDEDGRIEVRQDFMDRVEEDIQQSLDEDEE

Usually pIC50 stands for the negative decadic logarithm of the IC50, by convention in mol/L. A higher pIC50 goes with a small IC50. Broadly, the melting point is the temperature, or range, at which the solid turns liquid. For the compound `O=C(NNC(=O)c1cc(-c2ccc(Br)cc2)n[nH]1)c1ccccc1` [3s, N'-Benzoyl-3-(4-bromophenyl)-1H-pyrazole-5-carbohydrazide], the melting point fell in the range of 288 to 290 °C. Further, on S. aureus DNA gyrase, the pIC50 is 5.07. Moreover, the pIC50 against B. subtilis DNA gyrase is 5.59. Moreover, the MIC in data set [1] was determined as 10.6 µg/mL (≈ 27.4 µM). For the same compound, the MIC in data set [2] amounted to 10.6 µg/mL (≈ 27.4 µM). The MIC in data set [3] was determined as 12.5 µg/mL (≈ 32.4 µM). The MIC in data set [4] is 12.5 µg/mL (≈ 32.4 µM).
Compound `COc1ccc(C(=O)NNC(=O)c2cc(-c3ccc(Br)cc3)n[nH]2)cc1` [3e, 3-(4-Bromophenyl)-N'-(4-methoxybenzoyl)-1H-pyrazole-5-carbohydrazide] gave a melting point of 281 to 282 °C. At S. aureus DNA gyrase, this compound gave a pIC50 of 5.09. The pIC50 against B. subtilis DNA gyrase is 4.53. In addition, the MIC in data set [1] is 10.1 µg/mL (≈ 24.4 µM). The MIC in data set [2] was found to be 6.68 µg/mL (≈ 16.1 µM). The MIC in data set [3] was determined as 50 µg/mL (≈ 120 µM). The MIC in data set [4] was 12.5 µg/mL (≈ 30.1 µM).
`Cc1ccccc1C(=O)NNC(=O)c1cc(-c2ccc(Br)cc2)n[nH]1` [3p, 3-(4-Bromophenyl)-N'-(2-methylbenzoyl)-1H-pyrazole-5-carbohydrazide] showed a melting point of 292 to 294 °C. Besides, the pIC50 against S. aureus DNA gyrase is 4.88. This compound showed a pIC50 against B. subtilis DNA gyrase of 5.90. In data set [1], the MIC was found to be 12.2 µg/mL (≈ 30.4 µM). The MIC in data set [2] stood at 8.08 µg/mL (≈ 20.2 µM). The MIC in data set [3] turned out to be 50 µg/mL (≈ 125 µM). Moreover, the MIC in data set [4] amounted to 12.5 µg/mL (≈ 31.3 µM).
